Earlier results in patent US4803080A (BYK Gulden Lomberg Chemische Fabrik, priority 1984, dated 1989).

In the case of `Cn1c(=O)c2[nH]cnc2n(C)c1=O` [Theophylline, 1,3-dimethylxanthine], the “Serum theophylline levels regarded as toxic range” value (Nolte and Neumann) is listed as “more than 20 μg/ml”, the “Absorption from the gastrointestinal tract during the night” value (in vivo) is listed as “slowed down during the night” and the “Therapeutic range, plasma levels” value (in vivo) is listed as 8-20 mg/1.
